Reference: patent publication US8080522B2, “Polyethlene glycol modifications of thymosin alpha-1” (Institute of Pharmacology and Toxicology Academy of …, priority 2005, dated 2011)
Where no end group is shown, it is not given here.

Experiments:
spleen cell = assay: Interferon-γ production of spleen cells stimulated by Con A (double antibody sandwich ELISA); assay type: cell-based; conditions: for Concentration of IFN-γ: Con A 0.5 μg/mL, 24 hours, n = 3; for Enhancement percentage: versus Con A alone
Experimental: Prepare spleen cell suspension in sterile condition. Adjust cell concentration to 5×10^6 cell/mL by adding RPMI-1640 culture with 20% bovine serum. Add 0.5 mL cell suspension, 0.25 mL Con A (final concentration is 0.5 μg/mL) and 0.25 mL samples with different concentrations in 24-well plate; and add RPMI-1640 culture in control wells. Incubate the plates in a 5% CO2 chamber at 37° C. for 24 hours. Centrifuge and collect supernatant, test the content of IFN-γ in supernatant by double antibody sandwich ELISA. The protocol is according to the instruction on ELISA kit.

[1] = Plasma concentration / pharmacokinetics in mouse (competitive ELISA); assay type: in vivo; conditions: 300 μg per mouse, injected peritoneally, parameters in 24 h, n = 3
Experimental: Coating antigen: Dilute Tα1 detection antigen stock solution to a final concentration of 2 μg/mL with coating solution, and add it into the wells of ELISA plate for 0.1 mL per well, and incubate at 4° C. for 5 days. Then wash the ELISA plate 3 times with washing buffer, each 0.2 mL/well and 3 min/time. Add 0.2 mL blocking buffer to each well, incubate for 1.5 hours at 37° C., wash plate 2 times by washing buffer, and spin dried.
Sample preparation: Weight sample accurately, dissolve it in saline to a concentration of 1.5 mg/mL. Administrate 0.2 Ml by injection to each mouse peritoneally. Collect blood sample in 3 min, 20 min, 40 min, 1 h, 2 h, 3 h, 6 h, 8 h, 12 h, and 24 h. Collect serum by centrifuge the blood samples for 5 minutes at 10000 rpm, stored at −20° C. in a freezer. o prepare test sample, […] was added by 0.1 mL 1:1500 rabbit anti-Tα1 serum (final concentration is 1:6000), and 0.2 mL CD-1® mouse serum, and […]. Prepare blank control at the same time. Total volume is 0.4 mL. Incubate for 2 hours at 37° C. To prepare standard sample, Tα1 0.1 mL with different concentrations from 0.0004 to 400 μg/mL was added by 0.1 mL 1:1500 rabbit anti-Tα1 serum (final concentration is 1:6000), and 0.2 mL CD-1® mouse serum. Prepare blank control at the same time. Total volume is 0.4 mL. Incubate for 2 hours at 37° C.
Sample Testing Add the prepared test sample and standard sample to ELISA plate, 0.1 mL/well, reacting for 1 hour in 37° C. chamber. Wash the plates 3 times, spin dryed. Add substrate 0.1 mL/well for 10 minutes. Add 2 mol/L H2SO4 0.05 mL to each well to terminate the reaction. Measure the OD value at 450 nm. Plot the standard curve with the concentration of Tα1 standard sample as abscissa and OD value as vertical coordinate. Calculate the content of test sample according to this standard curve.

[2] = system: T lymphocyte (spleen cell); assay: T lymphocyte proliferation stimulated by Con A (3H-TdR incorporation); assay type: cell-based, mouse; conditions: Table 2-1; for 3H-TdR incorporation (cpm, x ± SD): Con A 0.5 μg/mL, 72 hours, n = 4; for Enhancement percentage: versus Con A alone
Experimental: Sacrifice mouse by draining artery blood, remove spleen in sterile condition, and make it to spleen cell suspension. After red blood cell lysis, wash for 3 times, and stain with Trypan Blue to count the living cells. The amount of living cells should be more than 95%. Dilute the cell concentration to 5×10^6 cell/mL by adding RPMI-1640 culture with 10% bovine serum. Add spleen cell suspension to a sterilized 96-well plate for 100 μL per well. The total amount is 200 μL per well (including 50 μL Con A and 50 μL medicament). Each sample concentration is repeated fro 3-4 wells. Incubate the plate in a 5% CO2 chamber for 72 hours, add 10 μci/mL ^3H-TdR 20 μL per well 16 hours before termination of the incubation, giving rise to a final concentration of 1.0 μci (37.0 KBq)/mL. Collect cells on filter membrane by using Herveste 96 cell harvester, dried in 80° C. oven for 20 minutes or dried in air. Put the dried filter membrane into 1450-423 microBeta sample bag, add scintillation liquid, and measure radioactivity (cpm) in Perkin Elmer MicroBeta Trilux 1450 Scintillation Counter.

[3] = Half-life in liver homogenate (HPLC); assay type: in vitro ADME; conditions: 37° C., sample 0.4 mg/mL or 0.8 mg/mL
Experimental: Experimental method: Prepare 0.4 mg/mL or 0.8 mg/mL sample aqueous solution in centrifuge tube, adding 50 μL liver homogenate. Then incubate for different time in 37° C. water bath. Terminate the reaction and precipitate liver homogenate protein by heating the mixture in boiling water for 5 minutes. Centrifuge it (10000 rpm) for 10 minutes. Analyze the supernatant by HPLC. The data was statistically analyzed by Origin Prof. 5.0.
HPLC: Column temperature: 25° C.; Flow rate 1.0 mL/min; Detection wavelength: 200 nm; Mobile phase A: 0.1% TFA/H2O; Mobile phase B: 0.1% TFA/70% CH3CN.

Substance: BMJB020: PEG modification of Tα1 (SDAAVDTSSEITTKDLKEKKEVVEEAEN; ends and bridges not checked; also: PEG conjugate, site not given here; UniProt P06454 2-29, looked up)
- Concentration of IFN-γ (spleen cell; Table 1-3, sample 1 μg/mL): 3998.3 ± 157.7 pg/mL
- Enhancement percentage (spleen cell; Table 1-3, sample 1 μg/mL): +30.9%
- Concentration of IFN-γ (spleen cell; Table 1-3, sample 10 μg/mL): 2654.0 ± 211.1 pg/mL
- Enhancement percentage (spleen cell; Table 1-3, sample 10 μg/mL): −13.1%
- Concentration of IFN-γ (spleen cell; Table 1-3, sample 100 μg/mL): 3135.8 ± 195.4 pg/mL
- Enhancement percentage (spleen cell; Table 1-3, sample 100 μg/mL): +2.7%
- AUC [1]: 4.08 µg·h/mL
- Cmax [1]: 0.172 µg/mL
- Tmax [1]: 12.000 h

Substance: Ac-[Cys^17(mPEG5000-MAL)]Tα1 (Ac-SDAAVDTSSEITTKDLC(mPEG5000‑maleimide)EKKEVVEEAEN; UniProt P06454 2-29, looked up, variant K17C) [BMJB017]
- Concentration of IFN-γ (spleen cell; Table 1-1, sample 1 μg/mL): 1048.9 ± 181.4 pg/mL
- Enhancement percentage (spleen cell; Table 1-1, sample 1 μg/mL): +39.5%
- Concentration of IFN-γ (spleen cell; Table 1-1, sample 10 μg/mL): 856.4 ± 61.8 pg/mL
- Enhancement percentage (spleen cell; Table 1-1, sample 10 μg/mL): +13.9%
- Concentration of IFN-γ (spleen cell; Table 1-1, sample 100 μg/mL): 474.7 ± 10.2**↓ pg/mL
- Enhancement percentage (spleen cell; Table 1-1, sample 100 μg/mL): −36.9%
- AUC [1]: 83.5 µg·h/mL
- Cmax [1]: 11.980 µg/mL
- Tmax [1]: 1.000 h
- 3H-TdR incorporation (cpm, x ± SD) ([2]; sample 10 μg/mL): 18919 ± 3507 cpm
- Enhancement percentage ([2]; sample 10 μg/mL): +40.3%
- 3H-TdR incorporation (cpm, x ± SD) ([2]; sample 50 μg/mL): 21091 ± 3916 cpm
- Enhancement percentage ([2]; sample 50 μg/mL): +56.4%
- 3H-TdR incorporation (cpm, x ± SD) ([2]; sample 100 μg/mL): 16778 ± 2483 cpm
- Enhancement percentage ([2]; sample 100 μg/mL): +24.4%

Substance: Ac-[Cys^8(mPEG5000-MAL)]Tα1 (Ac-SDAAVDTC(mPEG5000‑maleimide)SEITTKDLKEKKEVVEEAEN; UniProt P06454 2-29, looked up, variant S8C) [BMJB008]
- t1/2 in liver homogenate [3]: 65.2 h

Substance: BMJB015: PEG modification of Tα1, listed after BMJBT004 in Table 1-2 (SDAAVDTSSEITTKDLKEKKEVVEEAEN; ends and bridges not checked; also: PEG conjugate, site not given here; UniProt P06454 2-29, looked up)
- Concentration of IFN-γ (spleen cell; Table 1-2, sample 1 μg/mL): 3908.2 ± 147.2 pg/mL
- Enhancement percentage (spleen cell; Table 1-2, sample 1 μg/mL): +20.0%
- Concentration of IFN-γ (spleen cell; Table 1-2, sample 10 μg/mL): 3962.9 ± 137.6 pg/mL
- Enhancement percentage (spleen cell; Table 1-2, sample 10 μg/mL): +21.6%
- Concentration of IFN-γ (spleen cell; Table 1-2, sample 100 μg/mL): 3526.2 ± 68.0 pg/mL
- Enhancement percentage (spleen cell; Table 1-2, sample 100 μg/mL): +8.2%
- AUC [1]: 106 µg·h/mL
- Cmax [1]: 5.082 µg/mL
- Tmax [1]: 3.000 h
